Reference: the supplement of paper PMC10307832

Columns and labels:
Experiment in all cases: relative viability (nuclei count vs DMSO), 5 days (fraction); higher = more cells survive
Imatinib + Tozasertib = compound: Cc1ccc(NC(=O)c2ccc(CN3CCN(C)CC3)cc2)cc1Nc1nccc(-c2cccnc2)n1 [Imatinib] + Cc1cc(Nc2cc(N3CCN(C)CC3)nc(Sc3ccc(NC(=O)C4CC4)cc3)n2)n[nH]1 [Tozasertib] (partner 0.1 µM)
Procedure, shortened: (§1)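 Relative viability equals treated-well nuclei counts divided by vehicle-well nuclei counts. Counts came from 4× images of lung cancer cell lines grown in 1536-well plates for 5 days after pin-tool dosing on the day after seeding. Dosing used one drug alone or a fixed anchor-drug dose plus five library-drug doses (not always all listed) in √10 steps, and values are medians of duplicate plates.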

Imatinib + Vorinostat = compound: Cc1ccc(NC(=O)c2ccc(CN3CCN(C)CC3)cc2)cc1Nc1nccc(-c2cccnc2)n1 [Imatinib] + O=C(CCCCCCC(=O)Nc1ccccc1)NO [Vorinostat] (partner 1 µM)
Procedure, shortened: as §1

Imatinib + Palbociclib = compound: Cc1ccc(NC(=O)c2ccc(CN3CCN(C)CC3)cc2)cc1Nc1nccc(-c2cccnc2)n1 [Imatinib] + CC(=O)c1c(C)c2cnc(Nc3ccc(N4CCNCC4)cn3)nc2n(C2CCCC2)c1=O [Palbociclib] (partner 0.5 µM)
Procedure, shortened: as §1

Imatinib + Decitabine = compound: Cc1ccc(NC(=O)c2ccc(CN3CCN(C)CC3)cc2)cc1Nc1nccc(-c2cccnc2)n1 [Imatinib] + Nc1ncn([C@H]2C[C@H](O)[C@@H](CO)O2)c(=O)n1 [Decitabine] (partner 2 µM)
Procedure, shortened: as §1

Imatinib + Pemetrexed = compound: Cc1ccc(NC(=O)c2ccc(CN3CCN(C)CC3)cc2)cc1Nc1nccc(-c2cccnc2)n1 [Imatinib] + Nc1nc2[nH]cc(CCc3ccc(C(=O)N[C@@H](CCC(=O)O)C(=O)O)cc3)c2c(=O)[nH]1 [Pemetrexed] (partner 0.2 µM)
Procedure, shortened: as §1

Imatinib + OSI-027 = compound: Cc1ccc(NC(=O)c2ccc(CN3CCN(C)CC3)cc2)cc1Nc1nccc(-c2cccnc2)n1 [Imatinib] + COc1cccc2cc(-c3nc([C@H]4CC[C@H](C(=O)O)CC4)n4ncnc(N)c34)[nH]c12 [OSI-027] (partner 0.5 µM)
Procedure, shortened: as §1

Imatinib + Olaparib = compound: Cc1ccc(NC(=O)c2ccc(CN3CCN(C)CC3)cc2)cc1Nc1nccc(-c2cccnc2)n1 [Imatinib] + O=C(c1cc(Cc2n[nH]c(=O)c3ccccc23)ccc1F)N1CCN(C(=O)C2CC2)CC1 [Olaparib] (partner 8 µM)
Procedure, shortened: as §1

Imatinib + AZD7762 = compound: Cc1ccc(NC(=O)c2ccc(CN3CCN(C)CC3)cc2)cc1Nc1nccc(-c2cccnc2)n1 [Imatinib] + NC(=O)Nc1cc(-c2cccc(F)c2)sc1C(=O)N[C@H]1CCCNC1 [AZD7762] (partner 0.2 µM)
Procedure, shortened: as §1

Imatinib + Trametinib = compound: Cc1ccc(NC(=O)c2ccc(CN3CCN(C)CC3)cc2)cc1Nc1nccc(-c2cccnc2)n1 [Imatinib] + CC(=O)Nc1cccc(-n2c(=O)n(C3CC3)c(=O)c3c(Nc4ccc(I)cc4F)n(C)c(=O)c(C)c32)c1 [Trametinib] (partner 0.02 µM)
Procedure, shortened: as §1

Imatinib = compound: Cc1ccc(NC(=O)c2ccc(CN3CCN(C)CC3)cc2)cc1Nc1nccc(-c2cccnc2)n1 [Imatinib]
Procedure, shortened: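 Nuclei counted with MetaXpress define viability as the ratio of treated to vehicle wells, given as a median across plates. The lung cancer cell lines were in 1536-well plates, pinned with five √10-spaced library-drug doses and imaged at 4× after 5 days and Hoechst staining. Plates passed with control CV below 25% and at least one doubling.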

Imatinib + Phenformin = compound: Cc1ccc(NC(=O)c2ccc(CN3CCN(C)CC3)cc2)cc1Nc1nccc(-c2cccnc2)n1 [Imatinib] + N=C(N)NC(=N)NCCc1ccccc1 [Phenformin] (partner 250 µM)
Procedure, shortened: as §1

Imatinib + Luminespib = compound: Cc1ccc(NC(=O)c2ccc(CN3CCN(C)CC3)cc2)cc1Nc1nccc(-c2cccnc2)n1 [Imatinib] + CCNC(=O)c1noc(-c2cc(C(C)C)c(O)cc2O)c1-c1ccc(CN2CCOCC2)cc1 [Luminespib] (partner 0.01 µM)
Procedure, shortened: as §1

Imatinib + Foretinib = compound: Cc1ccc(NC(=O)c2ccc(CN3CCN(C)CC3)cc2)cc1Nc1nccc(-c2cccnc2)n1 [Imatinib] + COc1cc2c(Oc3ccc(NC(=O)C4(C(=O)Nc5ccc(F)cc5)CC4)cc3F)ccnc2cc1OCCCN1CCOCC1 [Foretinib] (partner 0.25 µM)
Procedure, shortened: as §1

Imatinib + Dasatinib = compound: Cc1ccc(NC(=O)c2ccc(CN3CCN(C)CC3)cc2)cc1Nc1nccc(-c2cccnc2)n1 [Imatinib] + Cc1nc(Nc2ncc(C(=O)Nc3c(C)cccc3Cl)s2)cc(N2CCN(CCO)CC2)n1 [Dasatinib] (partner 0.075 µM)
Procedure, shortened: as §1

NCI-H1648 showed a relative viability (Imatinib + Tozasertib; first compound 0.02 µM) of 0.542, a relative viability (Imatinib + Tozasertib; first compound 0.06325 µM) of 0.349 and a relative viability (Imatinib + Tozasertib; first compound 0.2 µM) of 0.426. It also gave a relative viability (Imatinib + Tozasertib; first compound 2 µM) of 0.443, a relative viability (Imatinib + Vorinostat; first compound 0.02 µM) of 0.503 and a relative viability (Imatinib + Vorinostat; first compound 0.06325 µM) of 0.272. The relative viability (Imatinib + Vorinostat; first compound 0.2 µM) was 0.422, the relative viability (Imatinib + Vorinostat; first compound 0.6325 µM) was 0.268 and the relative viability (Imatinib + Vorinostat; first compound 2 µM) was 0.476. For the same cell line, the relative viability (Imatinib + Palbociclib; first compound 0.02 µM) was 0.23, the relative viability (Imatinib + Palbociclib; first compound 0.06325 µM) was 0.262 and the relative viability (Imatinib + Palbociclib; first compound 0.2 µM) was 0.256. It also gave a relative viability (Imatinib + Palbociclib; first compound 0.6325 µM) of 0.267, a relative viability (Imatinib + Palbociclib; first compound 2 µM) of 0.237 and a relative viability (Imatinib + Decitabine; first compound 0.02 µM) of 0.442. It also gave a relative viability (Imatinib + Decitabine; first compound 0.06325 µM) of 0.478, a relative viability (Imatinib + Decitabine; first compound 0.2 µM) of 0.448 and a relative viability (Imatinib + Decitabine; first compound 0.6325 µM) of 0.393. It also gave a relative viability (Imatinib + Decitabine; first compound 2 µM) of 0.456, a relative viability (Imatinib + Pemetrexed; first compound 0.02 µM) of 0.722 and a relative viability (Imatinib + Pemetrexed; first compound 0.06325 µM) of 0.642. It also gave a relative viability (Imatinib + Pemetrexed; first compound 0.2 µM) of 0.721, a relative viability (Imatinib + Pemetrexed; first compound 0.6325 µM) of 0.543 and a relative viability (Imatinib + Pemetrexed; first compound 2 µM) of 0.673. It also gave a relative viability (Imatinib + OSI-027; first compound 0.02 µM) of 0.253, a relative viability (Imatinib + OSI-027; first compound 0.06325 µM) of 0.266 and a relative viability (Imatinib + OSI-027; first compound 0.2 µM) of 0.243. It also gave a relative viability (Imatinib + OSI-027; first compound 2 µM) of 0.237, a relative viability (Imatinib + Olaparib; first compound 0.02 µM) of 0.958 and a relative viability (Imatinib + Olaparib; first compound 0.06325 µM) of 0.633. For the same cell line, the relative viability (Imatinib + Olaparib; first compound 0.2 µM) was 0.971, the relative viability (Imatinib + Olaparib; first compound 0.6325 µM) was 0.307 and the relative viability (Imatinib + Olaparib; first compound 2 µM) was 0.776. The relative viability (Imatinib + AZD7762; first compound 0.02 µM) was 0.723, the relative viability (Imatinib + AZD7762; first compound 0.06325 µM) was 0.732 and the relative viability (Imatinib + AZD7762; first compound 0.2 µM) was 0.686. For the same cell line, the relative viability (Imatinib + AZD7762; first compound 0.6325 µM) was 0.642, the relative viability (Imatinib + AZD7762; first compound 2 µM) was 0.526 and the relative viability (Imatinib + Trametinib; first compound 0.02 µM) was 0.422. For the same cell line, the relative viability (Imatinib + Trametinib; first compound 0.06325 µM) was 0.364, the relative viability (Imatinib + Trametinib; first compound 0.2 µM) was 0.459 and the relative viability (Imatinib + Trametinib; first compound 0.6325 µM) was 0.301. The relative viability (Imatinib + Trametinib; first compound 2 µM) was 0.478, the relative viability (Imatinib; 0.02 µM) was 0.744 and the relative viability (Imatinib; 0.06325 µM) was 0.627. For the same cell line, the relative viability (Imatinib; 0.2 µM) was 0.699, the relative viability (Imatinib; 0.6325 µM) was 0.421 and the relative viability (Imatinib; 2 µM) was 0.618.

With NCI-H522 the relative viability (Imatinib + Phenformin; first compound 0.02 µM) was 0.679, the relative viability (Imatinib + Phenformin; first compound 0.06325 µM) was 0.554 and the relative viability (Imatinib + Phenformin; first compound 0.2 µM) was 0.626. It also gave a relative viability (Imatinib + Phenformin; first compound 0.6325 µM) of 0.613, a relative viability (Imatinib + Tozasertib; first compound 0.06325 µM) of 0.501 and a relative viability (Imatinib + Tozasertib; first compound 0.2 µM) of 0.524. The relative viability (Imatinib + Tozasertib; first compound 0.6325 µM) was 0.553, the relative viability (Imatinib + Tozasertib; first compound 2 µM) was 0.588 and the relative viability (Imatinib + Decitabine; first compound 0.02 µM) was 0.678. The relative viability (Imatinib + Decitabine; first compound 0.2 µM) was 0.616, the relative viability (Imatinib + Decitabine; first compound 0.6325 µM) was 0.577 and the relative viability (Imatinib + Decitabine; first compound 2 µM) was 0.675. It also gave a relative viability (Imatinib + OSI-027; first compound 0.02 µM) of 1.34, a relative viability (Imatinib + OSI-027; first compound 0.06325 µM) of 0.505 and a relative viability (Imatinib + OSI-027; first compound 2 µM) of 0.666. For the same cell line, the relative viability (Imatinib + Luminespib; first compound 0.02 µM) was 1.11, the relative viability (Imatinib + Luminespib; first compound 0.06325 µM) was 1.16 and the relative viability (Imatinib + Luminespib; first compound 0.2 µM) was 1.14. It also gave a relative viability (Imatinib + Luminespib; first compound 0.6325 µM) of 1.15, a relative viability (Imatinib + Luminespib; first compound 2 µM) of 1.11 and a relative viability (Imatinib + Olaparib; first compound 0.2 µM) of 0.641. For the same cell line, the relative viability (Imatinib + Olaparib; first compound 0.6325 µM) was 0.606.

NCI-H1623 showed a relative viability (Imatinib + Phenformin; first compound 0.02 µM) of 0.623, a relative viability (Imatinib + Phenformin; first compound 0.06325 µM) of 0.601 and a relative viability (Imatinib + Phenformin; first compound 0.2 µM) of 0.535. For the same cell line, the relative viability (Imatinib + Phenformin; first compound 0.6325 µM) was 0.573, the relative viability (Imatinib + Phenformin; first compound 2 µM) was 0.571 and the relative viability (Imatinib + Tozasertib; first compound 0.02 µM) was 0.435. The relative viability (Imatinib + Tozasertib; first compound 0.06325 µM) was 0.488, the relative viability (Imatinib + Tozasertib; first compound 0.2 µM) was 0.401 and the relative viability (Imatinib + Tozasertib; first compound 0.6325 µM) was 0.451. It also gave a relative viability (Imatinib + Tozasertib; first compound 2 µM) of 0.416, a relative viability (Imatinib + Foretinib; first compound 0.02 µM) of 0.872 and a relative viability (Imatinib + Foretinib; first compound 0.06325 µM) of 0.811. It also gave a relative viability (Imatinib + Foretinib; first compound 0.2 µM) of 0.749, a relative viability (Imatinib + Foretinib; first compound 0.6325 µM) of 0.788 and a relative viability (Imatinib + Foretinib; first compound 2 µM) of 0.894. It also gave a relative viability (Imatinib + OSI-027; first compound 0.02 µM) of 0.453, a relative viability (Imatinib + OSI-027; first compound 0.06325 µM) of 0.453 and a relative viability (Imatinib + OSI-027; first compound 0.2 µM) of 0.386. For the same cell line, the relative viability (Imatinib + OSI-027; first compound 0.6325 µM) was 0.431, the relative viability (Imatinib + OSI-027; first compound 2 µM) was 0.417 and the relative viability (Imatinib + Luminespib; first compound 0.02 µM) was 0.509. For the same cell line, the relative viability (Imatinib + Luminespib; first compound 0.06325 µM) was 0.522, the relative viability (Imatinib + Luminespib; first compound 0.2 µM) was 0.489 and the relative viability (Imatinib + Luminespib; first compound 0.6325 µM) was 0.569. It also gave a relative viability (Imatinib + Luminespib; first compound 2 µM) of 0.467, a relative viability (Imatinib + Dasatinib; first compound 0.02 µM) of 0.552 and a relative viability (Imatinib + Dasatinib; first compound 0.06325 µM) of 0.539. For the same cell line, the relative viability (Imatinib + Dasatinib; first compound 0.2 µM) was 0.482, the relative viability (Imatinib + Dasatinib; first compound 0.6325 µM) was 0.537 and the relative viability (Imatinib + Dasatinib; first compound 2 µM) was 0.538. The relative viability (Imatinib; 0.02 µM) was 0.97, the relative viability (Imatinib; 0.06325 µM) was 0.763 and the relative viability (Imatinib; 0.2 µM) was 0.814. It also gave a relative viability (Imatinib; 0.6325 µM) of 0.956 and a relative viability (Imatinib; 2 µM) of 0.947.
